Experimental findings from patent publication US12421208B2, “Chemical compounds” (ASTRAZENECA AB, priority 2020, dated 2025) are described below.

Where two headings read alike, the source gives them in different places.

The subject of one series is BRCA2 (−/−) DLD1 cells. Kind of series: PARP proliferation assay (7 day compound dosing), BRCA2 (−/−) DLD1. It is filed as cell-based. As to conditions: BRCA2 −/− DLD-1 cells, 7 day dosing, read-out: BRCA2 −/− DLD-1 prolif. 7 d IC50. Here is the method:
(§1) PARP Proliferation Assay (7 Day Compound Dosing)
(§2) DLD1 and BRCA2 (−/−) DLD1 cells were harvested to a density of 5000 cells/ml and 2.5E4 cells/ml respectively in complete media, 40 μL/well seeded into 384-well plates (Greiner, Kremsmunster, Austria; 781090) using a Multidrop Combi then incubated at 37° C., 5% CO2 overnight. Next day (Day 1) using a Multidrop Combi add sytoxgreen (5 ul, 2 uM) and saponin (10 ul, 0.25% stock) to a day 0 plate, seal the plate using a black adhesive lid and incubate for >3 h at rt. Cells were imaged using Cell Insight (Thermo Fisher) fitted with a 4× objective. Test compounds are added using an Echo 555 and placed in incubator maintained at 37° C., 5% CO2 and incubated for 7 days. On Day 8 add sytox green (5 ul, 2 uM) and then saponin (10 ul, 0.25% stock) to plates, seal the plate using a black adhesive lid and incubate for >3 h at rt. Read all cells on the Cell Insight with 4× Objective. The rate of proliferation is determined in Genedata by assessing the total cell number output from the Cell Insight for Day 0 and Day 8 plates.

Another series concerns the target T1, PARP2 (Homo sapiens, UniProt Q9UGN5).
T1 construct: Recombinant full length PARP2 protein
Kind of series: PARP fluorescence anisotropy binding assay, PARP2. As to conditions: recombinant full length PARP2. Here is the method: (§3) PARP Fluorescence Anisotropy Binding Assays
Recombinant full length PARP2 protein was diluted to 6 nM with 50 mM Tris pH 8, 0.001% Triton X100, 10 mM MgCl2, 150 mM NaCl and incubated for four hours with an equivalent volume of 2 nM fluorescent probe diluted with 50 mM Tris pH 8, 0.001% Triton X100, 10 mM MgCl2, 150 mM NaCl. The final DMSO concentration of the probe was kept below 1% (v/v).
Fluorescence anisotropy of the probe when bound to the proteins was measured using a BMG Pherastar FSX© in the presence of test compounds or solvent control and the effect on anisotropy determined. % inhibition values for different test compound concentrations were calculated and fitted to a four parameter logistic plot in order to determine the IC50 value.
For orientation: In fluorescence polarisation assays a small probe gives low polarisation when free and higher when bound to something large.

The next series addresses T2, PARP6 (Homo sapiens, UniProt Q2NL67).
T2 construct: Recombinant full length GST tagged PARP6 protein; GST
Briefly: PARP fluorescence anisotropy binding assay, PARP6. As to conditions: recombinant full length GST tagged PARP6. The protocol: as §3
Recombinant full length GST tagged PARP6 protein was diluted to 160 nM with 50 mM Tris pH 8, 0.001% Triton X100, 10 mM MgCl2, 150 mM NaCl and incubated for four hours with an equivalent volume of 6 nM fluorescent probe diluted with 50 mM Tris pH 8, 0.001% Triton X100, 10 mM MgCl2, 150 mM NaCl. The final DMSO concentration of the probe was kept below 1% (v/v).
Fluorescence anisotropy of the probe when bound to the proteins was measured using a BMG Pherastar FSX© in the presence of test compounds or solvent control and the effect on anisotropy determined. % inhibition values for different test compound concentrations were calculated and fitted to a four parameter logistic plot in order to determine the IC50 value. Where necessary, the compound Ki can be determined from the IC50 value using a Munson Rodbard equation defined in Anal Biochem. 1980 Sep. 1; 107(1):220-39 and is based on the known KD of the probe binding to the relevant PARP protein

For the next series, the target named is hERG (Homo sapiens, UniProt Q12809). Kind of series: hERG inhibition. The source says: It is well known that blockade of the cardiac ion channel coded by human ether-n-gogo-related gene (hERG) is a risk factor in drug discovery and development. Blockage of hERG can cause safety problems such as cardiac arrhythmia. Advantageously, the compounds of Formula I have low hERG activity.
(The hERG channel carries a current that helps repolarise heart muscle cells.)

The next series deals with T3, PARP3 (Homo sapiens, UniProt Q9Y6F1).
T3 construct: Recombinant full length PARP3 protein
T3 sequence (Q9Y6F1 1-533): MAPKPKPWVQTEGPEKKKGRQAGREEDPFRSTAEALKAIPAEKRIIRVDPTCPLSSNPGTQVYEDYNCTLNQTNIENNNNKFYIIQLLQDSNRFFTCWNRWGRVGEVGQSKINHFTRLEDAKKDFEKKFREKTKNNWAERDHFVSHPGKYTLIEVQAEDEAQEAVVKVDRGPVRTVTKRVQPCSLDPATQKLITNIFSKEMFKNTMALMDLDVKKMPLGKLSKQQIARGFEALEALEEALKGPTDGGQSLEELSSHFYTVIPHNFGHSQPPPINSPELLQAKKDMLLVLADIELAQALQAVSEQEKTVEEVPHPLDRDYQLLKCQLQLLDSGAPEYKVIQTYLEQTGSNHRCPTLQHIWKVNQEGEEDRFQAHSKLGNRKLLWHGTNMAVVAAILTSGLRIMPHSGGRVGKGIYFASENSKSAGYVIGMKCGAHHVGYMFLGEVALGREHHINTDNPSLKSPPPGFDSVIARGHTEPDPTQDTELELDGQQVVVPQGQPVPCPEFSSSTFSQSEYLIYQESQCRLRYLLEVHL
Briefly: PARP fluorescence anisotropy binding assay, PARP3. As to conditions: recombinant full length PARP3.
From the text: as §3

The target of the next series is PARP5a (Homo sapiens, UniProt O95271). Kind of series: PARP fluorescence anisotropy binding assay, PARP5a binding domain. As to conditions: recombinant PARP5a binding domain.
From the text: as §3

For the next series, the system named is DLD1 cells. Kind of series: PARP proliferation assay (7 day compound dosing), WT DLD1. As to conditions: Homo sapiens, 168 h; WT DLD-1 cells, 7 day dosing; read-out: WT DLD-1 prolif. 7 d IC50. The class given is cell-based. Here is the method:
as §1, §2

For another series, the system named is MDR1 and BCRP. Kind of series: In vitro human transporter efflux (MDCK-MDR1-BCRP). The class given is in vitro ADME. As to conditions: human, pH 7.4, Papp(B to A)/Papp(A to B), 1 or 0.1 μM, 90-min incubation.
For another series, the target named is T4, PARP1 (Homo sapiens, UniProt P09874).
T4 construct: Recombinant full length 6HIS tagged PARP1 protein; 6HIS
Briefly: PARP fluorescence anisotropy binding assay, PARP1. As to conditions: recombinant full length 6HIS tagged PARP1.

For series [1], the system named is MDCKII cells expressing MDR1 and BCRP. Briefly: In vitro human transporter efflux (MDCK-MDR1-BCRP). It is filed as in vitro ADME. As to conditions: Papp(B to A)/Papp(A to B), 1 or 0.1 μM, 90-min incubation.
Description: In Vitro Human Transporter Efflux
MDCKII cells expressing MDR1 and BCRP were seeded onto polyethylene membranes in 96-well Transwell insert systems at a density to form a confluent cell monolayer. […] The final percent volume of the organic solvent was less than 1%. Permeation of the test compounds from A to B direction and from B to A direction was determined over a 90-min incubation at 37° C. and 5% CO2 with a relative humidity of 95%. At the end of the incubation, samples from the apical and basolateral side were taken and then precipitated with cold acetonitrile containing internal standard. After centrifugation at 4000 rpm, the supernatant was diluted with 0.1% formic acid aqueous solution and quantified by LC-MS/MS. The integrity of the cell monolayers was confirmed by using the marker Lucifer yellow.
(1) The efflux ratio was calculated using the following equation Efflux ratio=Papp(B to A)/Papp(A to B)
(2) where dCr/dt is the cumulative concentration of the compound in the receiver chamber as a function of time (in μM/s); Vr is the solution volume in the receiver chamber (0.1 ml on the apical side and 0.3 ml on the basolateral side); A is the surface area for the transport, that is, 0.11 cm2 for the area of the monolayer; and CO is the initial concentration in the donor chamber (in μM).

hERG, sequence (Q12809 whole entry): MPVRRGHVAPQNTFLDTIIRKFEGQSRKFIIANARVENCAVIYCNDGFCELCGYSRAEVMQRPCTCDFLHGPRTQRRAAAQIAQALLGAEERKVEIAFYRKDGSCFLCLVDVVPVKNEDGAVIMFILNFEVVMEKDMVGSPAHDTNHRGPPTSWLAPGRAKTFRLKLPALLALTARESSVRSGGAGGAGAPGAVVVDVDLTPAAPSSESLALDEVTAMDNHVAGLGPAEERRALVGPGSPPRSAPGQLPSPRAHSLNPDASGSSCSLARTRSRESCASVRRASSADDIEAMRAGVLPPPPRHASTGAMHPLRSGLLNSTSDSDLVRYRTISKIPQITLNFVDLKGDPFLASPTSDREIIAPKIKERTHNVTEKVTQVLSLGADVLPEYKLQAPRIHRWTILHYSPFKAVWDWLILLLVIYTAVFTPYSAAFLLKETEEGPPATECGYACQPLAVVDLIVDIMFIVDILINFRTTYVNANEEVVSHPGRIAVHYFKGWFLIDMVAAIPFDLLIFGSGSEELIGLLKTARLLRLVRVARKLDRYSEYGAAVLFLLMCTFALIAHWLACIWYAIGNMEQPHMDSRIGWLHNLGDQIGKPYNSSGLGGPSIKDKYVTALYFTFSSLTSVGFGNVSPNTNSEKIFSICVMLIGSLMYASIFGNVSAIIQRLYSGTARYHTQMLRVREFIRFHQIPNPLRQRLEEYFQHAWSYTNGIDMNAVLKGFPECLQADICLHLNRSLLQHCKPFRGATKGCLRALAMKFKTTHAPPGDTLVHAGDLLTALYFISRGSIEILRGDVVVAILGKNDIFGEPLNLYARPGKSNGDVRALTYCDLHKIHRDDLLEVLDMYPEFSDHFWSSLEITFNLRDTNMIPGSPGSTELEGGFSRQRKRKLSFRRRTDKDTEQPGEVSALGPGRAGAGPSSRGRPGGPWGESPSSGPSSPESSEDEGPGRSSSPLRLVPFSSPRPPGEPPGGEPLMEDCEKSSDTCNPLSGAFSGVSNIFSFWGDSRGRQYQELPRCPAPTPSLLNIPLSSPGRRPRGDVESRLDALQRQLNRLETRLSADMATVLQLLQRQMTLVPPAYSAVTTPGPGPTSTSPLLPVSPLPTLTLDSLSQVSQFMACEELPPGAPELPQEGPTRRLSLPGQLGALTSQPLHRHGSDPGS
T1 sequence (Q9UGN5 whole entry): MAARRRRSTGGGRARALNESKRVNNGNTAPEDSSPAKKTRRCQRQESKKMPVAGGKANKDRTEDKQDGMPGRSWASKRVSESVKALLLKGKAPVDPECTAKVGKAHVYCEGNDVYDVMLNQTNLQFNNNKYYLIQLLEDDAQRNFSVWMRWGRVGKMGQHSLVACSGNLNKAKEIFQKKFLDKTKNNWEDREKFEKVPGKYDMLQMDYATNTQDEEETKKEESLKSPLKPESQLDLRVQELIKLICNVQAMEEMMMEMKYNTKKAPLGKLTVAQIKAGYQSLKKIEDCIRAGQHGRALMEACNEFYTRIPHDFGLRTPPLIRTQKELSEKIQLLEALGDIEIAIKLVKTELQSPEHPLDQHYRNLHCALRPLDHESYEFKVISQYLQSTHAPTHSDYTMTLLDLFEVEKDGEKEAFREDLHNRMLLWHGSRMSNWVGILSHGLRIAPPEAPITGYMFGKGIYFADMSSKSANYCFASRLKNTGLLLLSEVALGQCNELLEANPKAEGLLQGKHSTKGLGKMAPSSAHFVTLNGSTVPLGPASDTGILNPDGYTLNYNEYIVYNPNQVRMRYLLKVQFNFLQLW
PARP5a, sequence (O95271 1112-1317): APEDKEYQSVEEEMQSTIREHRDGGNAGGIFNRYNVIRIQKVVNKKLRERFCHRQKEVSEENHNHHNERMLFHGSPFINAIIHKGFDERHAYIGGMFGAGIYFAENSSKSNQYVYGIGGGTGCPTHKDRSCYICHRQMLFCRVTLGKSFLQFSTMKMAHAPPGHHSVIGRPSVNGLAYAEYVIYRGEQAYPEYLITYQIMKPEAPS
T2 sequence (Q2NL67 whole entry): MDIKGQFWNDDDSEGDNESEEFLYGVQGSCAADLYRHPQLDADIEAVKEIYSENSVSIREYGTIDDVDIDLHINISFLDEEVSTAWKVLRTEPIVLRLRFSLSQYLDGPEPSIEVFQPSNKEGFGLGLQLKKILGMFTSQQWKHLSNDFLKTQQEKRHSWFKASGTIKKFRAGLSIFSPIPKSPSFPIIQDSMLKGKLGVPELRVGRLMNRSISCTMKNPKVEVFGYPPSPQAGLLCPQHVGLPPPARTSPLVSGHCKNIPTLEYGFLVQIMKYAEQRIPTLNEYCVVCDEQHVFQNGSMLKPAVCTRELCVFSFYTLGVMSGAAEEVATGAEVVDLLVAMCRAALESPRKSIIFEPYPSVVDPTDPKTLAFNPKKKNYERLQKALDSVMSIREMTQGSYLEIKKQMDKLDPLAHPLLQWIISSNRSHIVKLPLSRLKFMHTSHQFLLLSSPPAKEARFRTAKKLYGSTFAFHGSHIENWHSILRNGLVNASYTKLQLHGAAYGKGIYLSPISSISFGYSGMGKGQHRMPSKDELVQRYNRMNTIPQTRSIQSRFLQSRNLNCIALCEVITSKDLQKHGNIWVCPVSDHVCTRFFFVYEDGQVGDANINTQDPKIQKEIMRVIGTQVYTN
T4 sequence (P09874 whole entry): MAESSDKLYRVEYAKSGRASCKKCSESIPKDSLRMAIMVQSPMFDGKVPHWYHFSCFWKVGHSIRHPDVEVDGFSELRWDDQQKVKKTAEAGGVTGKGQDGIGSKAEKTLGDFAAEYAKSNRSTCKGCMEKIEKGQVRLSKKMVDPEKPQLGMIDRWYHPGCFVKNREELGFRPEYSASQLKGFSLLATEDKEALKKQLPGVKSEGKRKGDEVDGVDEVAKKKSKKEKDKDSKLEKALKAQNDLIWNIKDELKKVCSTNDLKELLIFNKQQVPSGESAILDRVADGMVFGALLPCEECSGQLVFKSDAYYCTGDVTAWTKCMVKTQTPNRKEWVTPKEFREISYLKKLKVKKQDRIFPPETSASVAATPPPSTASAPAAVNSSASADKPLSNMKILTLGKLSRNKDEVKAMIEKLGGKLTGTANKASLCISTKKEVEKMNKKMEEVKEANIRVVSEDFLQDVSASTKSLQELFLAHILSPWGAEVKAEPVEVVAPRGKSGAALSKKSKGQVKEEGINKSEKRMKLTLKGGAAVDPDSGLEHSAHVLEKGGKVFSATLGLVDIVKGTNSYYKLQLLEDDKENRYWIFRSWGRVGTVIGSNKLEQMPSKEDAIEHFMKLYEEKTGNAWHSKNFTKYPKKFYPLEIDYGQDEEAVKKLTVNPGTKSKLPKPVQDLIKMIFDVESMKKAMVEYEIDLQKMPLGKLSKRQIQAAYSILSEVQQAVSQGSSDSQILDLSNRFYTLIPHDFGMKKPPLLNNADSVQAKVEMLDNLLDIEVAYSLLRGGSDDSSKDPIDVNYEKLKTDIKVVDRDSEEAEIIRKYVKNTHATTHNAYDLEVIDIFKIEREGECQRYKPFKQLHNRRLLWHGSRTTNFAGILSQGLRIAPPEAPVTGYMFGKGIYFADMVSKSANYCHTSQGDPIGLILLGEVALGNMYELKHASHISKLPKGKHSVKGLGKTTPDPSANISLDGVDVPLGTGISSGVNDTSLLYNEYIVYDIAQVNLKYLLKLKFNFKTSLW
Description for PARP1: Recombinant full length 6HIS tagged PARP1 protein was diluted to 6 nM with 50 mM Tris pH 8, 0.001% Triton X100, 10 mM MgCl2, 150 mM NaCl and incubated for four hours with an equivalent volume of 2 nM fluorescent probe diluted with 50 mM Tris pH 8, 0.001% Triton X100, 10 mM MgCl2, 150 mM NaCl. The final DMSO concentration of the probe was kept below 1% (v/v).

For the compound `CNC(=O)c1ccc(N2CCN(Cc3ccc4nc(C)c(=O)[nH]c4c3Cl)CC2)c(F)n1` [Example 17, 5-[4-[(5-chloro-2-methyl-3-oxo-4H-quinoxalin-6-yl)methyl]piperazin-1-yl]-6-fluoro-N-methyl-pyridine-2-carboxamide], the IC50 in the series on BRCA2 (−/−) DLD1 cells (Homo sapiens, DLD-1, 168 h) is 1.05 µM; on PARP2, above 100 µM; on PARP6, above 100 µM; on hERG, above 40 µM; on PARP3, above 100 µM; on PARP5a it was above 100 µM. Besides, the IC50 in the series with DLD1 cells was above 10 µM.

On to `CNC(=O)c1ccc(N2CCN(Cc3ccc4nc(C)c(=O)[nH]c4c3Cl)CC2)cn1` [Example 16, 5-[4-[(5-chloro-2-methyl-3-oxo-4H-quinoxalin-6-yl)methyl]piperazin-1-yl]-N-methyl-pyridine-2-carboxamide], for which the IC50 in the series with BRCA2 (−/−) DLD1 cells (Homo sapiens, DLD-1, 168 h) was 3.62 µM; at PARP2, above 100 µM; at PARP6, above 100 µM; against hERG, above 40 µM; at PARP3, above 100 µM; on PARP5a it was above 29 µM. In addition, the IC50 in the series on DLD1 cells is above 30 µM.

Consider `CNC(=O)c1ccc(N2CCN(Cc3ccc4nc(C(C)F)c(=O)[nH]c4c3F)CC2)c(C)n1` (single isomer, unassigned) [Example 14, 5-[4-[[5-fluoro-2-[(1S OR 1R)-1-fluoroethyl]-3-oxo-4H-quinoxalin-6-yl]methyl]piperazin-1-yl]-N,6-dimethyl-pyridine-2-carboxamide], for which the efflux ratio at 90 min with MDR1 and BCRP stood at 3.7.

In the case of `CCc1nc2ccc(CN3CCN(c4ccc(C(=O)NC)nc4Cl)CC3)c(Cl)c2[nH]c1=O` [Example 8, 6-chloro-5-[4-[(5-chloro-2-ethyl-3-oxo-4H-quinoxalin-6-yl)methyl]piperazin-1-yl]-N-methyl-pyridine-2-carboxamide], the IC50 in the series on BRCA2 (−/−) DLD1 cells (Homo sapiens, DLD-1, 168 h) is 0.012 µM; on PARP2, above 66 µM; at PARP6, above 100 µM; against hERG, above 40 µM; at PARP3, above 100 µM; at PARP5a, above 100 µM. In addition, in the series on DLD1 cells, the IC50 is above 7.9 µM.

As to `CCc1nc2ccc(CN3CCN(c4ccc(C(=O)NC)nc4F)CC3)c(Cl)c2[nH]c1=O` [Example 9, 5-[4-[(5-chloro-2-ethyl-3-oxo-4H-quinoxalin-6-yl)methyl]piperazin-1-yl]-6-fluoro-N-methyl-pyridine-2-carboxamide], the IC50 in the series on BRCA2 (−/−) DLD1 cells (Homo sapiens, DLD-1, 168 h) is 0.01 µM; on PARP2, above 100 µM; at PARP6, above 100 µM; against hERG it was above 40 µM; on PARP3, above 100 µM; on PARP5a, above 100 µM. Besides, the IC50 in the series on DLD1 cells is above 10 µM.

In the case of `CNC(=O)c1ccc(N2CCN(Cc3ccc4nc(C(C)F)c(=O)[nH]c4c3F)CC2)c(F)n1` (single isomer, unassigned) [Example 12, 6-fluoro-5-[4-[[5-fluoro-2-[(1S OR 1R)-1-fluoroethyl]-3-oxo-4H-quinoxalin-6-yl]methyl]piperazin-1-yl]-N-methyl-pyridine-2-carboxamide], the IC50 with BRCA2 (−/−) DLD1 cells was 0.008 µM; at PARP1, 0.015 µM; at PARP6 it was above 100 µM; against hERG, above 40 µM; on PARP3, 85 µM; at PARP5a, above 100 µM. Further, in the series with MDR1 and BCRP, the efflux ratio at 90 min came out at 4.2.

Turning to `CCc1nc2ccc(CN3CCN(c4ccc(C(=O)NC)nc4C)CC3)c(Cl)c2[nH]c1=O` [Example 11, 5-[4-[(5-chloro-2-ethyl-3-oxo-4H-quinoxalin-6-yl)methyl]piperazin-1-yl]-N,6-dimethyl-pyridine-2-carboxamide], the IC50 with BRCA2 (−/−) DLD1 cells (Homo sapiens, DLD-1, 168 h) was 0.009 µM; on PARP2 it was above 100 µM; at PARP6 it was above 100 µM; at hERG, above 40 µM; on PARP3, above 100 µM; at PARP5a it was above 100 µM. Besides, the IC50 in the series with DLD1 cells was above 30 µM.

As to `CNC(=O)c1ccc(N2CCN(Cc3ccc4nc(C(C)F)c(=O)[nH]c4c3F)CC2)c(F)n1` (single isomer, unassigned) [Example 13, 6-fluoro-5-[4-[[5-fluoro-2-[(1S OR 1R)-1-fluoroethyl]-3-oxo-4H-quinoxalin-6-yl]methyl]piperazin-1-yl]-N-methyl-pyridine-2-carboxamide], the IC50 is 0.019 µM in the series with BRCA2 (−/−) DLD1 cells; above 100 µM on PARP2; 0.009 µM at PARP1; above 100 µM at PARP6; above 40 µM against hERG; 62 µM on PARP3. The IC50 on PARP5a is above 100 µM; in the series on DLD1 cells it was 22 µM. The “MDCK-MDR1-BCRP Efflux Ratio” value in series [1] amounted to 3.0.

The term efflux ratio denotes the permeability from basolateral to apical divided by that in the opposite direction, in the common usage.
